In patent US11655308B2, “HM-3 fusion protein and application thereof” (TASLY BIOPHARMACEUTICALS CO., LTD., priority 2017, dated 2023):
Like-named read-outs stand apart in the source and are kept apart here. No end group written: not given here.

Columns and labels:
[1] = tested on: mice splenic lymphocyte proliferation stimulated by ConA; type: cell-based; conditions: for optimal (best) inhibition rate of splenic lymphocyte proliferation: ConA 5 μg/mL, 48 h, MTT, best of the tested concentrations; for inhibition rate / in vitro efficacy compared with TSL-4 control group: control: TSL-4 (P4 positive control, 12 μmol/L)
Method: Experimental method: mice orbit was by bloodletting to death, and immediately immersed in 75% ethanol for 5-10 min, and then the spleen was removed on a clean bench and placed in PBS. The spleen was placed on a sterile cell strainer (200 mesh) and ground with a syringe nozzle; during grinding process, PBS was added continuously; the slurry was collected and centrifuged (1000 rpm for 5 min), then cells were washed 3 times with Tris-ammonium chloride solution, and washed again with a medium, and then re-suspended in the medium. Finally, trypan blue living cell staining was performed on the cells, and the survival rate was more than 95%. The concentration of viable cells was adjusted to 2×10^6/mL. […] was added to each well of a 96-well plate, meanwhile, ConA (concanavalin to simulate splenocyte proliferation) and drugs were added to each well. Six duplicates were set in each group.
The 96-well plate was incubated for 48 h in a 5% CO2 incubator at 37° C. 5 mg/mL of MTT was added to the 96-well plate, 20 μL for each well, and then it was incubated continuously for 4 h in the incubator. The culture medium in the 96-well plate was discarded and 100 μL DMSO was added to each well and mixed gently. Absorbance was measured by a microplate reader at the wavelength of 570 nm and reference wavelength of 630 nm.
Proliferation inhibition rate (PI) was calculated according to formula:
[formula] wherein, Atest is the absorbance of dosing group, and Acontrol is the absorbance of negative control. Test results were expressed as mean±SD, and statistical T test was performed. *P<0.05 indicates significant difference, **P<0.01 indicates extremely significant difference. Based upon the results, the efficacy of the fusion protein against rheumatoid arthritis was screened.
In the P4 control group, TSL-4 fusion protein served as a control agent.

[2] = tested on: transgenic blood vessel fluorescent zebrafish; experiment: In vivo anti-angiogenesis in zebrafish (SIVs area); parameters: area of SIVs: unit not given here; conditions: for inhibiting effect on angiogenesis: 20 ng/tail; for inhibition rate of angiogenesis / area of SIVs: 24 h; for area of SIVs: normal control group 53193
Method: Experimental method: transgenic blood vessel fluorescent zebrafish was randomly selected and put into a six-well plate with 30 fish per well, and intravenously injected HM-3 polypeptide, TSL-1 fusion protein, TSL-2 fusion protein, TSL-3 fusion protein and TSL-4 fusion protein respectively in accordance with the dosage of 20 ng/tail and 66 ng/tail; the dosage was […] in Avastin positive control and the injection volume was 20 nL/tail; the zebrafish injected 20 nL/tail of buffer solution served as a solvent control group, and the zebrafish without any treatment served as a normal control group. 10 pieces of zebrafish were randomly selected from each group after processed for 24 h to observe the intestinal vessels of the transgenic zebrafish by a fluorescence microscope, as well as to take and maintain images. Image analysis was performed by Nikon MS-Elements D 3.10 to calculate the area (S) of SIVs (subintestinal vessel, SIV). The calculation formula of angiogenesis inhibition rate was as follows: Angiogenesis inhibition rate (%)=(1−S(Test sample group)/S(Normal control group))×100%
Statistical analysis was performed by variance analysis and Dunnett's T-test and the results were expressed as Mean±SD, where p<0.05 indicates a significant difference.

type-II CIA mice = experiment: Chronic inflammation model of type-II CIA in mice; type: in vivo, Balb/c mice; conditions: for ankle width / arthritis scoring / paw circumference / weight of mice / spleen weight: day 60; for ankle width: model G2 4.83±0.20; for arthritis scoring: model G2 11.5±1.7; for paw circumference: model G2 13.62; for weight of mice: model G2 19.5±1.6; for spleen weight: model G2 114.6±14.5
Method: Experimental method: Balb/c mice were taken and immunized for the first time. The concentration of type-II bovine collagen was 4 mg/mL. On the day of the experiment (day 0), complete Freund's adjuvant (CFA) and CII solution were mixed evenly in equal volume and emulsified. Excepting for the normal control group of Balb/c mice, mice in each group were sensitized by intracutaneous injection of 50 μL emulsifier at the end of tails. 21 days later, mice were re-immunized with the same dose of emulsifier at the end of tails, and incomplete Freund's adjuvant (IFA) served as an adjuvant at this time. Redness and swelling other arthritic symptoms appeared on toe joints of mice models approximately on the 29th day of the experiment, indicating successful modeling.
Animals in the modeling group on the 30th day of the experiment were randomly divided into:
There were 12 groups in total, and there were 8 pieces of mice in remaining each group excepting for 12 pieces in G1 (normal control group) and G2 (model group).
Measurement of mice weight: mice were weighed by an electronic balance every two days.
Measurement of sole thickness: the thickness of left, right and hind soles for each mouse was measured by a vernier caliper every two days.
Measurement of ankle joint width: the width of left and right ankle joints for each mouse was measured by vernier caliper every two days.
Arthritis index (AI) score: the severity of arthritis for each mouse was evaluated by a paw joint scoring method. 0: no redness and swelling; 1: redness and swelling of little toe joints; 2: redness and swelling of toe joints and toes; 3: redness and swelling of the portion below ankle joints; 4: redness and swelling of toe joints, toes and ankle joints. Scoring was performed once every two days until the end of the experiment.
Blood was collected from the orbit and serum was separated. After mice were killed by cervical dislocation, spleen and thymus were separated and weighed to calculate a spleen coefficient, and then the spleen and thymus were fixed in formalin stationary liquid.

Rat chondrocyte = tested on: Rat chondrocyte
Method: Chondrocytes were cultured in a T75 flask for 3-4 days. When the degree of fusion reached 80%, the original culture medium was removed, and sterile PBS was added to clean the cells for 2-3 times, then a proper amount of digestive juice was added, and a fresh culture medium was added after the cells were detached. Cells were centrifuged to remove the cell sap containing the digestive juice, and a proper amount of fresh culture medium was added to be prepared into a cell suspension with appropriate concentration for cell subculture or cell experiments. Cell subculture began from generation P1 and ended till generation P5, and there were cryopreserved cells in each generation. Cells were used for the experiment when subcultured to P2-P5.
According to the inoculum size of 200 μL/well, the cell suspension with the density of 2.5*10^4/mL was inoculated onto a 96-well cell culture plate, and 3 groups were prepared in total, one for control group, and the other two groups were stimulated by hydrogen peroxide. A cell-free medium was prepared as a blank group. There were 4-5 sub-wells prepared in each group. The cell culture plate was put to an incubator for incubation for 24 hours. The culture medium was replaced to different experimental groups in the following day with a dose volume of 100 μl and incubated for 24 or 48 hours respectively.
At the end of incubation according to the experimental plan, 10 μL of 5 mg/ml MTT was added to each experimental group based upon 1/10 of the cell culture volume, so that the cells were incubated with MTT in the incubator for 4 hours. Afterwards, supernatant was carefully discarded, and 200 μL of dimethyl sulfoxide (DMSO) was added for mixing well, then the absorbance was measured on a microplate reader at a test wavelength of 570 nm. Calculating formula of relative cell activity ratio (%): a mean value of the absorbance (per well) in the experimental group/the absorbance in the control group multiplies by 100%. All experimental groups were expressed as mean±standard deviation (X±SD). The difference between each group was analyzed by Prism 7.0, and tested by one-way ANOVA. *P<0.05 means statistical difference, **P<0.01 means significant statistical difference, and […] means extremely significant statistical difference.
The experimental concentration of hydrogen peroxide ranged within 0.01, 0.1, 0.5, 1, 10 mM. In order to determine the H2O2 molding time and dosage, three molding time points at 24 hours, 48 hours and 72 hours were selected, and two detection wells were prepared in total for each dosage of hydrogen peroxide.

human macrophage U937 = experiment: TNF-α production by LPS-induced human macrophage U937 (ELISA); type: cell-based; conditions: LPS 1 μg/mL, 48 h, negative group 77.6±19.6
Method: Experimental method: Human macrophage U937 was cultured in RPMI-1640 medium containing 10% fetal bovine serum and double antibodies in a constant temperature incubator at 37° C. under the condition of 5% CO2, and the medium was replaced every 2 days. U937 cells in the logarithmic phase were collected, resuspended and adjusted to the concentration of 5×10^5/mL. 100 μL of cells was added to each well of a 96-well plate overnight and induced with LPS (1 μg/mL) in the following day, where n=3. At the same time, the cells were treated with agents, and respectively divided into a positive control group adalimumab, an HM-3 polypeptide group, an mPEG-SC-HM-3 polypeptide group, an HM-3 fusion protein (TSL-1, TSL-2, TSL-3, TSL-4) group, and the specific dosing scheme was shown in Table 5.
48 h after the agents worked, culture medium was collected and centrifuged, and supernatant was taken to measure the content of TNF-α therein by ELISA. Test results were expressed as mean±SD, and statistical T test was performed. *P<0.05 indicates significant difference, **P<0.01 indicates extremely significant difference. Based upon the results, the efficacy of the HM-3 fusion protein against rheumatoid arthritis was screened.

[3] = G3 Adalimumab 8 mg/kg SC 1 time/14 d, 1 time
[4] = G4 HM-3 1.6 mg/kg IV 2 times/d, 30 times

Molecule: HM-3-(GGGGS)3-mIgG4-Fc [TSL-2]
- optimal (best) inhibition rate of splenic lymphocyte proliferation [1]: 34.1%
- inhibiting effect on angiogenesis [2]: significant inhibitory effect
- inhibition rate of angiogenesis ([2]; 20 ng/tail iv): 19%
- area of SIVs ([2]; 20 ng/tail iv): 42828
- inhibition rate of angiogenesis ([2]; 66 ng/tail iv): 39%
- area of SIVs ([2]; 66 ng/tail iv): 32374

Molecule: Adalimumab [reference compound]
- ankle width (type-II CIA mice; [3]): 4.23±0.08 mm
- arthritis scoring (type-II CIA mice; [3]): 7.6±0.9
- paw circumference (type-II CIA mice; [3]): 11.42±0.20 mm
- weight of mice (type-II CIA mice; [3]): 21.0 ± 1.5 g
- spleen weight (type-II CIA mice; [3]): 94.6 ± 6.7 mg

Molecule: HM-3-HyFc [TSL-14]
- inhibition rate / in vitro efficacy compared with TSL-4 control group [1]: Significantly lower

Molecule: OO [H2O2, hydrogen peroxide]
- MTT test value (Rat chondrocyte; 0.01 mM H2O2, 24 h, 0 mM 2.35): 2.51
- MTT test value (Rat chondrocyte; 0.01 mM H2O2, 48 h, 0 mM 2.24): 2.1
- MTT test value (Rat chondrocyte; 0.01 mM H2O2, 72 h, 0 mM 1.94): 1.99
- MTT test value (Rat chondrocyte; 0.1 mM H2O2, 24 h, 0 mM 2.35): 2.29
- MTT test value (Rat chondrocyte; 0.1 mM H2O2, 48 h, 0 mM 2.24): 2.08
- MTT test value (Rat chondrocyte; 0.1 mM H2O2, 72 h, 0 mM 1.94): 1.92
- MTT test value (Rat chondrocyte; 1 mM H2O2, 24 h, 0 mM 2.35): 1.28
- MTT test value (Rat chondrocyte; 1 mM H2O2, 48 h, 0 mM 2.24): 1.47
- MTT test value (Rat chondrocyte; 1 mM H2O2, 72 h, 0 mM 1.94): 0.81
- MTT test value (Rat chondrocyte; 10 mM H2O2, 24 h, 0 mM 2.35): 0.06
- MTT test value (Rat chondrocyte; 10 mM H2O2, 48 h, 0 mM 2.24): 0.56
- MTT test value (Rat chondrocyte; 10 mM H2O2, 72 h, 0 mM 1.94): −0.07

Molecule: IVRRADRAAVPGGGGRGD [HM-3, Ile-Val-Arg-Arg-Ala-Asp-Arg-Ala-Ala-Val-Pro-Gly-Gly-Gly-Gly-Arg-Gly-Asp]
- inhibiting effect on angiogenesis [2]: no inhibiting effect
- inhibition rate of angiogenesis ([2]; 20 ng/tail iv): 2%
- area of SIVs ([2]; 20 ng/tail iv): 52186
- inhibition rate of angiogenesis ([2]; 66 ng/tail iv): 20%
- area of SIVs ([2]; 66 ng/tail iv): 42492
- TNF-α content in cell supernatant (human macrophage U937; high-dosage (Table 5: 18 μmol/L)): 58.9 ± 10.6 pg/mL
- TNF-α content in cell supernatant (human macrophage U937; low-dosage (Table 5: 9 μmol/L)): 83.9 ± 20.4 pg/mL
- ankle width (type-II CIA mice; [4]): 4.21±0.15 mm
- arthritis scoring (type-II CIA mice; [4]): 7.8±1.4
- paw circumference (type-II CIA mice; [4]): 11.41±0.53 mm
- weight of mice (type-II CIA mice; [4]): 20.9 ± 1.5 g
- spleen weight (type-II CIA mice; [4]): 94.2 ± 13.3 mg
- therapeutic effect compared with group G3 (positive Adalimumab group) (type-II CIA mice; groups G4 (HM-3), G10 (TSL-4 12.5 mg/kg once for 5 days, 3 times)): slightly lower than that of the group G3

Molecule: HyFc-(GGGGS)3-HM-3 [TSL-16]
- inhibition rate / in vitro efficacy compared with TSL-4 control group [1]: Significantly lower

B1: HM-3-(GGGGS)3-IgG2-Fc (protein)
chain: IVRRADRAAVPGGGGRGDGGGGSGGGGSGGGGSERKCCVECPPCPAPPVAGPSVFLFPPKPKDTLMISRTPEVTCVVVDVSHEDPEVQFNWYVDGVEVHNAKTKPREEQFNSTFRVVSVLTVVHQDWLNGKEYKCKVSNKGLPAPIEKTISKTKGQPREPQVYTLPPSREEMTKNQVSLTCLVKGFYPSDISVEWESNGQPENNYKTTPPMLDSDGSFFLYSKLTVDKSRWQQGNVFSCSVMHEALHNHYTQKSLSLSPGK
- optimal (best) inhibition rate of splenic lymphocyte proliferation [1]: 39.6%
- inhibiting effect on angiogenesis [2]: significant inhibitory effect
- inhibition rate of angiogenesis ([2]; 20 ng/tail iv): 25%
- area of SIVs ([2]; 20 ng/tail iv): 39929
- inhibition rate of angiogenesis ([2]; 66 ng/tail iv): 30%
- area of SIVs ([2]; 66 ng/tail iv): 37022
